Experimental data as given in patent publication US5686486A, “4-hydroxy-benzopyran-2-ones and 4-hydroxy-cycloalkyl[b]pyran-2-ones useful to treat retroviral infections” (priority 1995, dated 1997).
“And” between values parts separate entries of the source, which are not always exact repeats. Equal values may be shown once. Read-outs that look alike come from different tables or passages of the source.

Biological target: HIV-1 protease (Human immunodeficiency virus type 1 group M subtype B, UniProt P04585)
Test: biochemical
Conditions: for inhibition at 1 µM: read-out: HIV-1 Protease % Inhib, dose 1.000 uM; for inhibition at 100 µM: read-out: HIV-1 Protease % Inhib, dose 100.000 uM; for inhibition at 0.123 µM: read-out: HIV-1 Protease % Inhib, dose 0.123 uM; for inhibition at 0.37 µM: read-out: HIV-1 Protease % Inhib, dose 0.370 uM; for inhibition at 1.1 µM: read-out: HIV-1 Protease % Inhib, dose 1.100 uM
Method: The HIV protease screening assay is based on fluorescently labeled substrate which can be resolved from nonlabeled cleavage product using special beads coated with streptavidin. The substrate is biotinylated at the amino terminal arginine and fluorescently labeled with fluorescein isothiocynate (FITC) at the carboxyl terminal lysine. This assay has been employed to detect novel, nonpeptidic inhibitors of HIV-1 protease. Substrate (20 μl of 0.2 μM), sample (10 μl of desired concentration), and enzyme (10 μl of 0.1 μM) are added to a 96 well pandex plate. The assay is run in 0.1M sodium acetate buffer at pH 5.5 in the presence of 1.0M sodium chloride and 0.05% NP-40 with incubated in the dark for one hour at room temperature. Strepavidin coated polystyrene beads {40 μl of 0.1% (w/v)} are added and the plate is incubated in the dark for an additional half hour. The labeled cleavage product is separated from the unreacted substrate via filtration and is read on the Idexx screen machine. The data are analyzed by appropriate computer algorithms to ascertain percent inhibition values.

[1] = read-out: HIV-1 Protease % Inhib, dose 10.000 uM
[2] = read-out: HIV-1 Protease % Inhib, dose 3.300 uM
[3] = read-out: HIV-1 Protease % Inhib, dose 30.000 uM
[4] = dose 3.300 uM, read-out: HIV-1 Protease % Inhib
[5] = dose 10.000 uM, read-out: HIV-1 Protease % Inhib
[6] = dose 30.000 uM, read-out: HIV-1 Protease % Inhib

Compound	inhibition at 1 µM [%]	inhibition at 10 µM [1] [%]	inhibition at 100 µM [%]	other results
CCC(c1cccc(C#N)c1)c1c(O)c2ccccc2oc1=O (centres unmarked) [Example 98, Coumarin, 3-[1-(3-cyanophenyl)propyl]-4-hydroxy-]	< 10	< 10	74.5	–
O=c1oc2ccccc2c(O)c1C(CC1CCCCC1)c1ccccc1 (centres unmarked) [Example 17, 3-(2-Cyclohexyl-1-phenylethyl)-4-hydroxycoumarin]	< 10	27.6	–	–
CCC(c1cccc(NC(=O)CCc2c[nH]c3ccccc23)c1)c1c(O)c2ccccc2oc1=O (stereo not drawn) [Example 79, Coumarin, 3-[α-ethyl-[[[2-(indol-3-yl)ethyl]carbonyl]amino]benzyl]-4-hydroxy-]	< 10	61	80.9	IC50 (read-out: HIV-1 Protease IC50): 13.1 µM
CCC(c1cccc(NC(=O)CCNC(=O)OC(C)(C)C)c1)c1c(O)c2ccccc2oc1=O (centres unmarked) [Example 23, 4-Hydroxy-3-[1-[3-[[3-[(1,1-dimethylethoxycarbonyl)amino]-1-oxopropyl]amino]phenyl]propyl]-coumarin]	46.6	96.6	104	IC50 (HIV-1 Protease IC50): 0.66 µM and 0.7 µM; HIV-1 Protease % Inhib (dose 100.000 uM): 104.2%
CC(c1cccc(C(=O)NCc2ccccn2)c1)c1c(O)c2ccccc2oc1=O (centres unmarked) [Example 27, Coumarin, 4-hydroxy-3-[1-[3-[[[(2-pyridinyl)methyl]amino]carbonyl]phenyl]ethyl]-]	< 10	< 10	72	–
CCC(c1cccc(NC(=O)C2CCCN2C(=O)OC(C)(C)C)c1)c1c(O)c2ccccc2oc1=O (centres unmarked) [Example 59, 1-Pyrrolidinecarboxylic acid, 2-[[[3-[1-(4-hydroxy-2-oxo-2H-1-benzopyran-3-yl)propyl]phenyl]amino]carbonyl]-, 1,1-dimethylethyl ester]	< 10	21.5	82.8	–
CCC(C)C(NC(=O)c1cccc(C(C)c2c(O)c3ccccc3oc2=O)c1)C(=O)NCc1ccccn1 (centres unmarked) [Example 30, Benzamide, 3-[1-(4-hydroxy-2-oxo-2H-1-benzopyran-3-yl)ethyl]-N-[2-methyl-1-[[(2-pyridinylmethyl)amino]carbonyl]butyl]-]	< 10	65.3	109	–
CCC(Cc1c(O)c2ccccc2oc1=O)c1ccccc1 (centres unmarked) [Example 84, Coumarin, 4-hydroxy-3-(2-phenylbutyl)-]	< 10	30.2	–	–
C=CCOc1cccc(C(CC)c2c(O)c3ccccc3oc2=O)c1 (centres unmarked) [Example 67, 3-(1'-(3-Allyloxyphenyl)propyl)-4-hydroxycoumarin]	< 10	11.7	60.9	–
CCC(c1ccccc1)c1c(O)c2c(oc1=O)CCCCCC2 (centres unmarked) [Example 108, 5,6,7,8,9,10-Hexahydro-4-hydroxy-3-(1-phenylpropyl)-2H-cycloocta[b]pyran-2-one]	72.6	95.5	94.2	–
CCC(c1ccccc1)c1c(O)c2ccc(O)cc2oc1=O (centres unmarked) [Example 93, Coumarin, 4,7-dihydroxy-3-(1-phenylpropyl)-]	23.2	79.4	109	IC50 (HIV-1 Protease IC50): 20.6 µM; HIV-1 Protease % Inhib (dose 100.000 uM): 91.7%
CC(C)S(=O)(=O)Nc1cccc(C(c2c(O)c3c(oc2=O)CCCCCC3)C2CC2)c1 (centres unmarked) [Example 328, N-[3-[Cyclopropyl(5,6,7,8,9,10-hexahydro-4-hydroxy-2-oxo-2H-cycloocta[b]pyran-3-yl)methyl]phenyl]-2-propanesulfonamide]	–	114	–	inhibition at 0.123 µM: 11.9%; inhibition at 0.37 µM: 46%; inhibition at 1.1 µM: 86.6%; inhibition at 3.3 µM [2]: 106%; inhibition at 30 µM [3]: 111%
O=c1oc2ccccc2c(O)c1C(C1CC1)C1CC1 [Example 104, 3-(dicyclopropyl)methyl-4-hydroxycoumarin]	12.2	68.7	106	IC50 (HIV-1 Protease IC50): 6.74 µM
O=c1oc2ccccc2c(O)c1C1CCc2ccccc21 (centres unmarked) [Example 35, 4-hydroxy-3-[1-indanyl]-coumarin]	< 10	19.6	92.6	IC50 (HIV-1 Protease IC50): 6.8 µM
CCC(c1ccccc1)c1c(O)c2ccc(OC)cc2oc1=O (centres unmarked) [Example 88, Coumarin, 4-hydroxy-7-methoxy-3-(. 1-phenylpropyl)-]	80	108	–	IC50 (HIV-1 Protease IC50): 1.52 µM and 1.6 µM and 2 µM; HIV-1 Protease % Inhib (dose 12.500 uM): 80.8%; HIV-1 Protease % Inhib (dose 100.000 uM): 117.82% and 92% and 93.5%; inhibition at 1.56 µM (read-out: HIV-1 Protease % Inhib, dose 1.560 uM): 49.9%; inhibition at 1.57 µM (read-out: HIV-1 Protease % Inhib, dose 1.570 uM): 41.7%; inhibition at 12.5 µM (read-out: HIV-1 Protease % Inhib, dose 12.500 uM): 89.2%
Nc1cc(N)cc(C(c2c(O)c3c(oc2=O)CCCCCC3)C2CC2)c1 (centres unmarked) [Example 484, 3-[Cyclopropyl-(3,5-diamino-phenyl)-methyl]-4-hydroxy-5,6,7,8,9,10-hexahydro-cycloocta[b]pyran-2-one]	–	–	–	inhibition at 3.3 µM [4]: 17.7%; inhibition at 10 µM [5]: 37.2%; inhibition at 30 µM [6]: 51.6%
CCC(c1cccc(NC(=O)OCc2ccccc2)c1)c1c(O)c2c(oc1=O)CCCCCC2 (centres unmarked) [Example 217, Carbamic Acid, [3-[1-(5,6,7,8,9,10-hexahydro-4-hydroxy-2-oxo-2H-cycloocta[b]pyran-3-yl)propyl]phenyl]-, phenyl methyl ester]	–	–	–	inhibition at 3.3 µM [4]: 31.6%; inhibition at 10 µM [5]: 64.2%; inhibition at 30 µM [6]: 72.9%
O=c1oc2c(c(O)c1C(c1cccc(NS(=O)(=O)c3cccc4cccnc34)c1)C1CC1)CCCCCC2 (centres unmarked) [Example 263, N-[3-[Cyclopropyl(5,6,7,8,9, 10-hexahydro4-hydroxy-2-oxo-2H-cycloocta[b]pyran-3-yl)methyl]phenyl]-8-quinolinesulfonamide]	–	108	–	inhibition at 0.123 µM: 82.9%; inhibition at 0.37 µM: 89.9%; inhibition at 1.1 µM: 95.7%; inhibition at 3.3 µM [2]: 98.7%; inhibition at 30 µM [3]: 98.3%
CCC(Cc1ccccc1)c1c(O)c2ccccc2oc1=O (centres unmarked) [Example 144, 3-(1-Benzyl-propyl)4-hydroxy-chromen-2-one]	25.9	77	86	–
COc1ccc2c(c1)C(c1c(O)c3ccccc3oc1=O)CCC2 (centres unmarked) [Example 77, 4-Hydroxy-3-(1-(7-methoxy)-1,2,3,4-tetrahydronaphthyl)-coumarin]	< 10	57.8	92.5	–
CC(c1cccc(C(=O)NCC(=O)OC(C)(C)C)c1)c1c(O)c2ccccc2oc1=O (centres unmarked) [Example 22, 4-Hydroxy-3-[1-[3-[[[(1,1-dimethylethoxycarbonyl)methyl]amino]carbonyl]phenyl]ethyl]-coumarin]	< 10	< 10	58.7	–
CCC(CC(=O)Nc1cccc(C(CC)c2c(O)c3ccccc3oc2=O)c1)c1ccccc1 (centres unmarked) [Example 49, Coumarin, 4-hydroxy-3-[1-[3-[(1-oxo-3-phenylpentyl)amino]phenyl]propyl]-]	< 10	21.9	60.3	–
O=c1oc2c(c(O)c1C(c1cccc(NS(=O)(=O)c3ccc(I)cc3)c1)C1CC1)CCCCCC2 (centres unmarked) [Example 300, N-[3-[Cyclopropyl(5,6,7,8,9,10-hexahydro-4-hydroxy-2-oxo-2H-cycloocta[b]pyran-3-yl)methyl]phenyl]-4-iodo-benzenesulfonamide]	–	108	–	inhibition at 0.123 µM: 68.8%; inhibition at 0.37 µM: 92.2%; inhibition at 1.1 µM: 101%; inhibition at 3.3 µM [2]: 102%; inhibition at 30 µM [3]: 108%
O=c1oc2c(c(O)c1C(c1cc(NS(=O)(=O)c3cccc4cccnc34)cc(NS(=O)(=O)c3cccc4cccnc34)c1)C1CC1)CCCCCC2 (centres unmarked) [Example 485, N-[3-[Cyclopropyl-(4-hydroxy-2-oxo-5,6,7,8,9,10-hexahydro-2H-cycloocta[b]pyran-3-yl)-methyl]-5-8-quinolinesulfonylamino-phenyl]-8-quinolinesulfonamide]	–	–	–	inhibition at 10 µM [5]: 13.1%; inhibition at 30 µM [6]: 54.2%
O=c1oc2ccccc2c(O)c1CCCc1ccccc1 [Example 2, 4-Hydroxy-3-(3-phenylpropyl)coumarin]	–	15.6	63.6	inhibition at 20 µM (read-out: HIV-1 Protease % Inhib, dose 20.000 uM): 48.1%; inhibition at 200 µM (read-out: HIV-1 Protease % Inhib, dose 200.000 uM): 97.5%
CCC(c1cccc(NC(=O)CCn2ccc3ccccc32)c1)c1c(O)c2ccccc2oc1=O (centres unmarked) [Example 63, Coumarin, 4-hydroxy-3-[1-[3-[[3-(^1 H-indol-1-yl)-1-oxopropyl]amino]phenyl]propyl]-]	77.6	90.3	111	IC50 (HIV-1 Protease IC50): 2 µM
